According to patent US10214491B2, “Activators and therapeutic applications thereof” (THE JOHNS HOPKINS UNIVERSITY, priority 2007, dated 2019):

Test system: p53DsRed reporter in PG3/9 melanoma cells (A375 clone)
Assay: p53DsRed reporter activation assay (in vitro p53 activity assay)
Format: cell-based
Conditions: for EC50: Homo sapiens, A-375, PG3/9 melanoma cells, 24 hours, read-out: effective concentration (EC50), p53DsRed reporter activation
Description: The ability of the compounds to activate p53 was analyzed using a cell-based assay. To establish the assay, a stable cell transfectant expressing a p53-responsive reporter was generated. A375 melanoma cell line (ATCC CRL-1619) was transfected with a vector containing the p53 consensus element 13x repeat (13XRE) (Kern et al., 1991) cloned to a DsRed Express reporter vector (Clontech) to yield the vector “PG13DsRed”, hereafter termed as “p53DsRed”. […] The cell clone PG3/9 was used in the screen.
The assay was carried out in a 96-well format and all plate handlings were done using liquid handling robots (Thermo CRS, Thermo Electron Corporation; Biomek FX, Beckman Coulter and Hamilton STAR, Hamilton Microlab). Cells were plated at 10,000 cells/100 μL/well onto 96-well ViewPlates (Packard) and incubated overnight at +37° C. and 5% CO2. Small molecule compound chemical libraries were purchased and diluted to dimethylsulfoxide (DMSO) at 10 mM concentration. The compounds were pin-transferred to plain media at approximately 3 μM concentration either as single (one compound/one well) or pools of compounds (two compounds/one well). The growth media was removed and replaced with media with the test compounds followed by incubation of the cells for 24 h at +37° C. and 5% CO2. […] Following the incubation, the cells were washed with phosphate buffered saline and fixed with paraformaldehyde (PFA, 4%, 25 min, RT) and cell nuclei were stained with Hoechst 33342 (Molecular Probes, 4 μg/mL, 2 min, RT).
The fluorescence signals of Hoechst 33342 and DsRed reporter expression in the fixed cells were analyzed using ArrayScan 4.5 high-content screening platform (Cellomics) including an inverted microscope (Zeiss 200M) with 10× objective (Zeiss), Omega XF93 filter (Omega), ORCA-AG CCD camera (Hamamatsu). The algorithm used for image acquisition and analysis was Target Activation Bioapplication (Cellomics), which was set to analyse the total number of cells and the percentage of p53 reporter positive cells termed as “responders”. For each well, four images on both fluorescence channels were acquired corresponding to approximately 1700 cells in mock-treated wells. The mean number of responders was calculated for each well, and compounds causing reporter activation for more than two times the mean number of responders in the mock treated cells in each plate were regarded as hits.
In the secondary screen the hits were collected and tested over 100 nM to 10 μM concentration range. The compound treatment time, cell fixations and stainings as well as fluorescence signal detection was as described above. Compounds providing consistent p53DsRed reporter activation at low μM concentration range were selected for further testing. The effective concentration 50 (EC50) was calculated using the following formula: […]

| SMILES | EC50 | fraction of p53-reporter activated cells at high concentrations (high concentrations, apparently due to excessive cell death) |
| --- | --- | --- |
| CN(C)CCNC(=O)c1cccn2c(=O)c3cc4ccccc4cc3nc12 [Compound 21] | 300 nM |  |
| Cc1cc(C)c2nc3nc(C)cc(C)c3c(N)c2c1 [Compound 22, 2,4,7,9-tetramethylbenzo[b]-1,8-naphthyridin-5-amine] | 2600 nM | decrease in the fraction of p53-reporter activated cells |
